From patent publication US20250388565A1, “ESTROGEN RECEPTOR ALPHA DEGRADERS AND METHODS OF USE THEREOF” (Relay Therapeutics, Inc., priority 2022, published 2025) come the findings set out here.

This test has as its target T1, ERα protein (HiBiT-tagged) in ESR1_HiBiT KI MCF7 cells (Homo sapiens, UniProt P03372).
T1 sequence (P03372 1-595): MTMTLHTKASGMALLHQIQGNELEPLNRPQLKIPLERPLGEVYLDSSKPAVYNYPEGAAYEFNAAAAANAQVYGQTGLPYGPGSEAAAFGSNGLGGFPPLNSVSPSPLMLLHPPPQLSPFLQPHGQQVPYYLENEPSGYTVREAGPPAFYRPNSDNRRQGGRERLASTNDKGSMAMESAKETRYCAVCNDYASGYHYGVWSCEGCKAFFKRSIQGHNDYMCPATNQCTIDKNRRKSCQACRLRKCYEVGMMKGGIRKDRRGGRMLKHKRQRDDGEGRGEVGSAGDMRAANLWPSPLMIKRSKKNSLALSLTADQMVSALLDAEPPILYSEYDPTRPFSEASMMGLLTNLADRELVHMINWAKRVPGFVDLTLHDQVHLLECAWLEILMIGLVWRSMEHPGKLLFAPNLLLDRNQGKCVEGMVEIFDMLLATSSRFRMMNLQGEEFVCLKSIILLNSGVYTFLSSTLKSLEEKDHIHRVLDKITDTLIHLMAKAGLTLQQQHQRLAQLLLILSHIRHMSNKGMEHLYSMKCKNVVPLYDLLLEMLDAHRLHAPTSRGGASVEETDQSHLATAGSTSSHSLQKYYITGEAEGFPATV
Description: Nano Glo HiBiT Lytic Degradation Assay. The class given is cell-based. As to conditions: 6 hours with compound, 14-point dose response 1:3, bell-shape curve fit, half-maximal effect of first Hill model, read-out: MCF7 ESR1 HiBiT - (DC50). In outline: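 Lytic Nano-Glo HiBiT luminescence quantified ERα remaining after a 6 h, 37° C compound exposure of MCF7 cells carrying endogenous HiBiT-tagged ESR1. Dosing used 14 threefold dilutions from a 10 mM DMSO stock (0.1% DMSO final), run in duplicate. Signals were corrected for cell-free background and expressed relative to DMSO, and DC50 came from a bell-shaped curve fit (first Hill model half-maximum).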
A general note: HiBiT is a short tag that completes a luciferase, so light tracks the accessible tagged protein.
By DC50 is commonly meant the concentration giving 50% degradation. Take `O=C1CCN(c2ccc(N3CCC4(CCN(CC5CCN(c6ccc([C@@H]7c8ccc(O)cc8CC[C@@H]7c7ccccc7)cc6)CC5)C4)CC3)cc2)C(=O)N1` [Compound I-291, 1-(4-(2-((1-(4-((1R,2S)-6-hydroxy-2-phenyl-1,2,3,4-tetrahydronaphthalen-1-yl)phenyl)piperidin-4-yl)methyl)-2,8-diazaspiro[4.5]decan-8-yl)phenyl)dihydropyrimidine-2,4 (1H,3H)-dione]: the DC50 is 0.7 nM.
The same measure for `O=C1CC[C@H](N2Cc3cc(N4CCN(CC5CCN(c6ccc([C@@H]7c8ccc(O)cc8CC[C@@H]7c7cccc8c7CCCC8)cc6)CC5)CC4)ccc3C2=O)C(=O)N1` (single isomer, unassigned) [Compound I-62]: 2 nM; for `O=C1CC[C@H](N2Cc3cc(N4CCN(CC5CCN(c6ccc([C@H]7c8ccc(O)cc8CO[C@H]7c7ccc8c(c7)CCC8)cc6)CC5)CC4)ccc3C2=O)C(=O)N1` [Compound I-366, (S)-3-(5-(4-((1-(4-((3R,4S)-3-(2,3-dihydro-1H-inden-5-yl)-7-hydroxyisochroman-4-yl)phenyl)piperidin-4-yl)methyl)piperazin-1-yl)-1-oxoisoindolin-2-yl)piperidine-2,6-dione]: at least 10000 nM.
Consider `O=C1CC[C@H](N2Cc3cc(N4CC5(CCN(CC6CCN(c7ccc([C@@H]8c9ccc(O)cc9CC[C@@H]8c8ccccc8)cc7)CC6)CC5)C4)ccc3C2=O)C(=O)N1` (single isomer, unassigned) [II-95], for which the 50% degradation concentration (DC50) is 0.83 nM.
With `O=C1CCC(c2ccc(N3CCN(CCC4CCN(c5ccc([C@H]6c7ccc(O)cc7CC[C@H]6c6ccccc6)cc5)CC4)CC3)cc2)C(=O)N1` (single isomer, unassigned) [Compound I-42] the figure was at least 10000 nM; with `O=C1CC[C@H](N2Cc3cc(N4CCN(CC5CCN(c6ccc([C@@H]7c8ccc(O)cc8C(F)(F)C[C@@H]7c7ccccc7)cc6F)CC5)CC4)ccc3C2=O)C(=O)N1` [Compound I-194, (S)-3-(5-(4-((1-(4-((1R,2S)-4,4-difluoro-6-hydroxy-2-phenyl-1,2,3,4-tetrahydronaphthalen-1-yl)-2-fluorophenyl)piperidin-4-yl)methyl)piperazin-1-yl)-1-oxoisoindolin-2-yl)piperidine-2,6-dione], 0.41 nM; with `CN(CC1CCN(c2ccc([C@H]3c4ccc(O)cc4CC[C@H]3c3ccccc3)cc2)CC1)C1CN(c2ccc3c(c2)CN(C2CCC(=O)NC2=O)C3=O)C1` (single isomer, unassigned) [II-14], at least 10000 nM.
